Laboratory results: article PMC9794833, “Ligand recognition and activation of neuromedin U receptor 2” (Nature Communications, 2022)
Where “and” joins values, the source holds several entries; their conditions need not be identical. Equal entries are not always repeated. Where two headings read alike, the source gives them in different places. Where no end group is shown, it is not given here.

What was measured:
[1] = biological target: T1, NMU2 engineered construct (Homo sapiens, UniProt Q9GZQ4); experiment: TRUPATH assay, engineered NMU2 construct used for cryo-EM; format: cell-based
T1 construct: HA signal peptide (N); Flag (N); PreScission protease site (C); twin-strep (C); expressed in transfected cells
T1 sequence (Q9GZQ4 1-355 limits assumed, change not shown): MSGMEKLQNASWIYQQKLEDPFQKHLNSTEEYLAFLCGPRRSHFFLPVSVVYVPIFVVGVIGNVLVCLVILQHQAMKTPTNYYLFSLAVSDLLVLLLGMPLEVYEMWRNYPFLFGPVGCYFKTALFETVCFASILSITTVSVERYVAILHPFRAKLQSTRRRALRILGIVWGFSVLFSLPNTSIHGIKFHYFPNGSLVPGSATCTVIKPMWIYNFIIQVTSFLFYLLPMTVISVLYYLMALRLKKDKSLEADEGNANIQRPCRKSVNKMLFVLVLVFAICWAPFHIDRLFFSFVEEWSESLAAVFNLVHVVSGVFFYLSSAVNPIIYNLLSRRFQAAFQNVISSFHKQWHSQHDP
From the text: To facilitate expression and purification of the NmU-25–NMU2–Gi1 complex, a hemagglutinin (HA) signal peptide followed by a flag tag was introduced at the N terminus of NMU2, while the flexible C-terminal residues of the receptor (Q356-T415) were replaced by a PreScission protease site followed by a twin-strep affinity tag (Supplementary Fig. 1a, b). […] Dominant-negative Gαi1 (DNGαi1) containing five mutations (S47C, G202T, G203A, E245A, and A326S) was used to improve the stability of the complex as these mutations lead to a preference for a nucleotide-free state, and prevent the dissociation of Gβγ from the heterotrimer[20],[21]. Over 8700 movies were collected, and the structure of the NmU-25–NMU2–Gi1 complex was determined by cryo-EM single-particle analysis at a global nominal resolution of 3.3 Å (Supplementary Fig. 2a–f, Supplementary Table 1). […]
The plasmids of Gαi1, Gβ3, and Gγ9 used for the TRUPATH assay were purchased from Addgene (TRUPATH Kit, #1000000163). […] The expression level of the receptor was measured by incubating 10 μl cells with 15 μl TBS buffer supplemented with 4% bovine serum albumin, 20% (v/v) viability staining solution7-AAD (Invitrogen, Cat#00-6993-50), and ANTI-FLAG M2-FITC antibody (Sigma, F4049; 1:100 diluted by TBS) at 4 °C for 20 min. […] Data were processed and analyzed following the method in the literature by using GraphPad Prism 8.0.

NMU2 = biological target: T2, NMU2 (Homo sapiens, UniProt Q9GZQ4); experiment: TRUPATH Gαi1βγ biosensor assay, WT NMU2; format: cell-based; conditions: for NmU-25–induced G protein activation of NMU2: single replicates, in % (unit assumed)
T2 construct: HA signal peptide (N); expressed in transfected cells; host or cells: HEK 293F
T2 sequence (Q9GZQ4 whole entry): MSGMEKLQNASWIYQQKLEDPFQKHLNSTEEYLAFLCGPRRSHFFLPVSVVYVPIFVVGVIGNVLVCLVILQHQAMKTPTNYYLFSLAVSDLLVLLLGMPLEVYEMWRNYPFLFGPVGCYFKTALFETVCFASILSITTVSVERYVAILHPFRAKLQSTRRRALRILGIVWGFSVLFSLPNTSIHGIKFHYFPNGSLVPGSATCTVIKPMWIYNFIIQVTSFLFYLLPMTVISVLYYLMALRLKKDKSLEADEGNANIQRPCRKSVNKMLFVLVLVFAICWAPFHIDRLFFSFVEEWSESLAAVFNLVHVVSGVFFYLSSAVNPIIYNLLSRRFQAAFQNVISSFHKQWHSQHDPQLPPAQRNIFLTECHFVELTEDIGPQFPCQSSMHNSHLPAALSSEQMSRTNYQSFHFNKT
Experimental: The plasmids of Gαi1, Gβ3, and Gγ9 used for the TRUPATH assay were purchased from Addgene (TRUPATH Kit, #1000000163). NMU2 constructs of WT and mutants were constructed into a PTT5 vector (Invitrogen) with an N-terminal HA signal peptide followed by a Flag tag. HEK 293F cells were transiently transfected with WT or mutants of NMU2, Gαi1, Gβ3, and Gγ9 at an […] ratio of 4:1:1:1 with a total of 3500 ng plasmid DNA using a transfection reagent (PEI MAX 2000, Polysciences) and cultivated at 37 °C with 5 % CO2. Cells were collected after 48-h transfection. The expression level of the receptor was measured by incubating 10 μl cells with 15 μl TBS buffer supplemented with 4% bovine serum albumin, 20% (v/v) viability staining solution7-AAD (Invitrogen, Cat#00-6993-50), and ANTI-FLAG M2-FITC antibody (Sigma, F4049; 1:100 diluted by TBS) at 4 °C for 20 min. After incubation, 175 μl TBS buffer was added, and the fluorescence signal on the cell surface was detected by an FCM (flow cytometry) reader (Millipore). The cells were diluted with 1× HBSS (Hank’s balanced salt solution) balanced buffer supplemented with 25 mM HEPES, pH 7.4, and seeded onto the 96-well opaque cell culture plates (Beyotime) at a density of 18,000 cells per well by 60 μl. Freshly prepared 50 μM coelenterazine 400a (Nanolight Technologies) was added into the well by 10 μl. After a 5 min equilibration time in the darkness, plates were then read in a Synerg^TM H1 microplate reader (BioTek) with excitation at 395 nm and emission at 410 and 515 nm by serially three times. Then, 30 μl of 3.3× agonists were added into the wells with a gradient final concentration from 10^−4–10^−13 M. Plates were read immediately again by serially five times. Data were processed and analyzed following the method in the literature by using GraphPad Prism 8.0.

## FRVDEEFQSPFASQSRGYFLFRPRN-NH2 [NmU-25]
[1]; Log [agonist] M -5
  G protein activation (TRUPATH), dose-response point: 104.095 and 133.885 and 136.246
[1]; Log [agonist] M -6
  G protein activation (TRUPATH), dose-response point: 76.3981 and 114.895 and 125.038
NMU2; TRUPATH, peer review file
  potency on Gi1, Gq and G11 signaling pathways (in words): highest potency by coupling Gi1
NMU2; WT
  EC50 ratio EC50(mutant)/EC50(WT): 1
  Span (window between Emax and minimal agonist response): 100±5 % of WT
NMU2; WT, Log [NmU-25] M -4
  NmU-25–induced G protein activation of NMU2: 96.1513 and 120.034 and 131.645 and 132.135 and 112.945 and 100.303 and 111.674 and 103.511
NMU2; WT, Log [NmU-25] M -5
  NmU-25–induced G protein activation of NMU2: 94.5176 and 100.381 and 95.0326
NMU2; WT, Log [NmU-25] M -8
  NmU-25–induced G protein activation of NMU2: 14.7563 and 14.6245 and 25.1777 and 27.4903 and 32.4994 and 60.5946 and 16.3263 and -20.6053 and 85.0469 and -9.5497 and 77.5389 and 54.5579 and 12.0114
NMU2; WT, Log [NmU-25] M -9
  NmU-25–induced G protein activation of NMU2: 14.8034 and 2.989 and 12.9021 and 10.3696 and 7.38 and -3.464 and 27.6247 and 0.6791 and -7.166 and 14.4877 and 22.3774 and 22.0623 and -4.444
NMU2; WT, Log [NmU-25] M -10
  NmU-25–induced G protein activation of NMU2: -1.975 and -9.668 and -7.55 and 11.1071 and -8.093 and -25.3752 and 0.6481 and -23.592 and -13.8096 and 16.7093 and 3.342 and 8.321 and 30.8279
NMU2; WT, Log [NmU-25] M -11
  NmU-25–induced G protein activation of NMU2: -12.488 and 4.703 and -8.667 and -24.4881 and 6.542 and 34.4845 and -19.0587 and 46.905 and 31.0606 and -18.1089 and -17.8891 and -27.6836
NMU2; WT, agonist-induced G protein activation, HEK 293F, read-out: EC50
  EC50: 34 nM
NMU2; WT, earlier manuscript version quoted in peer review file, read-out: EC50
  EC50: 37 nM
NMU2; WT, read-out: pEC50 mean±SEM (converted)
  EC50: 34.7 nM
